# According to patent US8586555B2, “Immunomodulatory compositions, formulations, and methods for use thereof” (Dynavax Technologies Corporation, priority 2001, dated 2013):
# Legend:
# Type in all cases: cell-based
# [1] = test system: human peripheral blood mononuclear cells (hPBMC); experiment: human PBMC assay, Example 3 (oligo and PLGA added at the same time, 48 well plates); conditions: for IFN-α / IFN-γ: oligo 20 μg/ml, PLGA 250 μg/ml, 24 hours
# Experimental: (§1) Hexameric oligonucleotides were tested for immunomodulatory activity alone and complexed with lactic acid/glycolic acid copolymer microcarrier beads using a human peripheral blood mononuclear cells (hPBMC) assay. Peripheral blood was collected from healthy volunteers by venipuncture using heparinized syringes. Blood was layered onto a FICOLL® (Amersham Pharmacia Biotech) cushion and centrifuged. hPBMCs, located at the FICOLL® interface, were collected, then washed twice with cold phosphate buffered saline (PBS). The cells were resuspended and cultured in 48 well plates at 2×10^6 cells/mL at 37° C. in RPMI 1640 with 10% heat-inactivated human AB serum plus 50 units/mL penicillin, 50 μg/mL streptomycin, 300 μg/mL glutamine, 1 mM sodium pyruvate, and 1×MEM non-essential amino acids (NEAA).
# (§2) Oligonucleotides were tested as single agents, or in combination with PLGA microspheres (unmodified or cationic). All oligonucleotides contained 100% phosphorothioate linkages and were tested at 20 μg/ml. The PLGA microcarriers were used at 250 μg/ml. When oligos were tested with PLGA microcarriers, the oligo and the microcarriers were added at the same time to the culture. The cells were cultured in the in the presence of test samples for 24 hours, then cell-free medium was collected from each well and assayed for IFN-γ and IFN-α concentration. Two different oligonucleotides were used as controls: a first oligonucleotide known to have immunostimulatory activity (a 22mer oligonucleotide containing an ISS (“ISS+,” 5′-[…]-3′(SEQ ID NO:2)) and a second oligonucleotide of similar sequence but lacking immunostimulatory activity (“ISS−,” 5′-[…]-3′ (SEQ ID NO:1)). SAC (PANSORBIN® CalBiochem, 1/5000 dilution) and a untreated culture were used as additional positive and negative controls, respectively. SAC contains Staph. aureus (Cowan I) cell material. All samples were assayed in duplicate.
# (§3) IFN-γ and IFN-α were assayed using CYTOSCREEN™ ELISA kits from BioSource International, Inc., according to the manufacturer's instructions.
# [2] = test system: human peripheral blood mononuclear cells (hPBMC); experiment: human PBMC assay, Example 7 (oligo 20 μg/ml, cPLGA 100 μg/ml)
# Experimental: as §1, §2, §3
# (§4) The immunomodulatory activity of the oligonucleotides used in Examples 3 and 4 was confirmed with the human PBMC assay using PBMCs from an additional four donors (donors 28051-28054). Oligonucleotides were tested alone or in combination with cationic PLGA as described in Example 3, except that 96 well plates were used instead of 48 well plates and the oligonucleotides were premixed with the cationic microspheres at room temperature for 15 minutes before they were added to the culture, rather than being added simultaneously to the culture.
# Additional oligonucleotides, some incorporating modified bases, were tested for immunomodulatory activity in the human PBMC assay. Oligonucleotides were tested alone or in combination with cPLGA as described in Example 5. The oligonucleotides were premixed with the cationic PLGA microspheres for 15 minutes at room temperature at concentrations of 20 μg/ml and 100 μg/ml, respectively.
# [3] = test system: human peripheral blood mononuclear cells (hPBMC); experiment: human PBMC assay, Example 5 (96 well plates, premixed)
# Experimental: as §1, §2, §3, §4
# [4] = test system: human peripheral blood mononuclear cells (hPBMC); experiment: human PBMC assay, Example 6
# Method in brief: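 PBMCs at 2×10^6 cells/mL in RPMI with 10% human AB serum, 37° C., given 100% phosphorothioate oligonucleotides at 20 μg/ml, alone or with PLGA microcarriers at 250 μg/ml, added together or premixed 15 min. After 24 h, supernatant IFN-γ and IFN-α measured by ELISA in duplicate.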
# [5] = test system: human peripheral blood mononuclear cells (hPBMC); experiment: human PBMC assay, Example 4 (oligos and PLGA premixed 15 minutes)
# Experimental: as §1, §2, §3
# Additional hexameric and pentameric oligonucleotides were tested for immunomodulatory activity in the PBMC assay. Oligonucleotides 6-6 (5′-TCGAGA-3′), 6-8 (5′-GTCGAC-3′), 6-9 (5′-GTCGTT-3′), 6-2 (5′-TCGTTT-3′), 6-3 (5′-TTCGTT-3′), 6-4 (5′-TTTCGT-3′), 5-1 (5′-TCGTC-3′), and 5-2 (5′-TCGTT-3′) were tested alone or in combination with cationic PLGA as described in Example 3 except that the oligos and PLGA were premixed for 15 minutes room temperature before addition to the cultures. The test articles were assayed using PBMC isolated from donors 28044 and 28045.
substance,measurement,setting,value
"5′-TGACTGTGAACGTTCGAGATGA-3′ [ISS+, reference compound]",IFN-α,[1]; donor 28033,28 pg/mL
same,IFN-γ,[1]; donor 28033,99 pg/mL
same,IFN-α,[1]; donor 28034,106 pg/mL
same,IFN-γ,[1]; donor 28034,223 pg/mL
same,IFN-α Mean,"[1]; mean of donors 28033, 28034",67 pg/mL
same,IFN-γ Mean,"[1]; mean of donors 28033, 28034",161 pg/mL
same,IFN-α,[2]; donor 28115,54 pg/mL
same,IFN-γ,[2]; donor 28115,156 pg/mL
same,IFN-α,[2]; donor 28116,29 pg/mL
same,IFN-γ,[2]; donor 28116,125 pg/mL
same,IFN-α,[2]; donor 28117,17 pg/mL
same,IFN-γ,[2]; donor 28117,497 pg/mL
same,IFN-α,[2]; donor 28118,0 pg/mL
same,IFN-γ,[2]; donor 28118,46 pg/mL
same,IFN-α Mean,[2]; mean of donors 28115-28118,25 pg/mL
same,IFN-γ Mean,[2]; mean of donors 28115-28118,206 pg/mL
same,IFN-α,[3]; donor 28051,12 pg/mL
same,IFN-γ,[3]; donor 28051,66 pg/mL
same,IFN-α,[3]; donor 28052,28 pg/mL
same,IFN-γ,[3]; donor 28052,20 pg/mL
same,IFN-α,[3]; donor 28053,12 pg/mL
same,IFN-γ,[3]; donor 28053,72 pg/mL
same,IFN-α,[3]; donor 28054,12 pg/mL
same,IFN-γ,[3]; donor 28054,23 pg/mL
same,IFN-α Mean,[3]; mean of donors 28051-28054,16 pg/mL
same,IFN-γ Mean,[3]; mean of donors 28051-28054,45 pg/mL
same,IFN-α,[4]; donor 28075,0 pg/mL
same,IFN-γ,[4]; donor 28075,48 pg/mL
same,IFN-α,[4]; donor 28076,73 pg/mL
same,IFN-γ,[4]; donor 28076,76 pg/mL
same,IFN-α,[4]; donor 28077,54 pg/mL
same,IFN-γ,[4]; donor 28077,15 pg/mL
same,IFN-α,[4]; donor 28078,94 pg/mL
same,IFN-γ,[4]; donor 28078,72 pg/mL
same,IFN-α Mean,[4]; mean of donors 28075-28078,55 pg/mL
same,IFN-γ Mean,[4]; mean of donors 28075-28078,53 pg/mL
same,IFN-α Mean,[4]; mean of volunteers 154-157,12 pg/mL
same,IFN-γ Mean,[4]; mean of volunteers 154-157,317 pg/mL
same,IFN-α,[4]; volunteer 154,31 pg/mL
same,IFN-γ,[4]; volunteer 154,211 pg/mL
same,IFN-α,[4]; volunteer 155,0 pg/mL
same,IFN-γ,[4]; volunteer 155,131 pg/mL
same,IFN-α,[4]; volunteer 156,15 pg/mL
same,IFN-γ,[4]; volunteer 156,86 pg/mL
same,IFN-α,[4]; volunteer 157,0 pg/mL
same,IFN-γ,[4]; volunteer 157,840 pg/mL
same,IFN-α,[5]; donor 28044,401 pg/mL
same,IFN-γ,[5]; donor 28044,2180 pg/mL
same,IFN-α,[5]; donor 28045,39 pg/mL
same,IFN-γ,[5]; donor 28045,669 pg/mL
same,IFN-α Mean,"[5]; mean of donors 28044, 28045",220 pg/mL
same,IFN-γ Mean,"[5]; mean of donors 28044, 28045",1425 pg/mL
